In patent publication US20040228866A1, “Suppressor genes” (Ludwig Institute for Cancer Research, priority 2000, published 2004):

Tested on: Saos-2 cells
Assay: Apoptosis by flow cytometry (CD20-gated, sub-G1 DNA content) in transfected Saos-2 cells
Type: cell-based
Protocol: Apoptosis was identified by the expression of the co-transfected cell surface marker CD20, as described in Samuels-Lev et al. (Mol. Cell 8:781-94, 2001, herein incorporated by reference).
The number of apoptotic cells was determined using the methods described in Example 6.
Cells (10^6) were plated 24-48 hours prior to transfection in 10 cm plates. Cells were grown in DMEM supplemented with 10% FCS and transfected with 2 μg of a plasmid expressing CD20 as a transfection marker. Increasing amounts of ASPP1 and ASPP2 were transfected (7.5 μg, 15 μg and 25 μg). 36 hours after the transfection, both attached and floating cells were harvested and analysed using flow cytometry as follows. The transfected cells were gated based on the expression of CD20. The percentage of apoptotic cells was measured by the accumulation of cells with a sub-G1 DNA content derived from at least three individual experiments.
The transfected cells were analyzed by flow cytometry as described in Example 6.

**Q.** With Bcl-2: anti-apoptotic Bcl-2 oncoprotein as the substance, how does the “effect on the apoptotic function of wild type p53” value (co-expressed with p53) read?
**A.** The value was “decreased”.

**Q.** What about the “effect on the enhancement of p53 apoptotic function by ASPP1 and ASPP2” value (co-expressed with p53 and ASPP1 or ASPP2) of the same substance?
**A.** The value was “effectively prevented ASPP1 and ASPP2 from enhancing the apoptotic function of p53”.

**Q.** What about the “effect on apoptosis induced by p53H175-L” value (transcriptionally inactive, mitochondria-targeted mutant p53, FIG. 9A) of the same substance?
**A.** Its value is “failed to decrease or inhibit apoptosis induced by p53H175-L”.
